The values below come from ChEMBL document CHEMBL5634087, “Novel 5-aminopyrazoles endowed with anti-angiogenetic properties: Design, synthesis and biological evaluation” (Eur J Med Chem, 2023).

Activity calls are given as the source filed them. The rule behind the calls is not given here.

One series deals with SK-BR-3. In words: Antiproliferative activity against human SK-BR-3 cells assessed as growth rate at 10 uM incubated for 48 hrs by MTT assay relative to control. Conditions: read-out: Activity. The format is functional. (In general: Formazan colour is commonly taken as a measure of viable cells.)
For series [1], the target named is RAC-alpha serine/threonine-protein kinase (Homo sapiens) (UniProt P31749). In words: Inhibition of AKT phosphorylation in serum starved VEGF stimulated HUVEC cells at 20 uM preincubated for 10 mins followed by VEGF addition and measured after 20 mins by Western blotting analysis relative to control. The format is cell-based. The conditions noted are these: time 30.0 min. For orientation: Immunoblotting shows a protein as a band on a membrane.

For the next series, the system named is SK-MEL-28. In words: Antiproliferative activity against human SK-MEL-28 cells assessed as growth rate at 10 uM incubated for 48 hrs by MTT assay relative to control. The format is functional. Conditions: read-out: Activity.
A further series has as its system HepG2. Nature of the series: Antiproliferative activity against human HepG2 cells assessed as growth rate at 10 uM incubated for 48 hrs by MTT assay relative to control. The format is functional. Conditions: read-out: Activity.
The test system of a further series is HeLa. In words: Antiproliferative activity against human HeLa cells assessed as growth rate at 10 uM incubated for 48 hrs by MTT assay relative to control. The format is functional. The conditions noted are these: read-out: Activity.
In the next series the test system is MDA-MB-231. Nature of the series: Antiproliferative activity against human MDA-MB-231 cells assessed as growth rate at 10 uM incubated for 48 hrs by MTT assay relative to control. The conditions noted are these: read-out: Activity. The format is functional.
In series [2] the test system is HFF. Nature of the series: Antiangiogenic activity in confluent HFF cells assessed as inhibition of cell migration at 20 uM incubated for 24 to 48 hrs by Hoechst 33342 staining based wound healing assay relative to control. The format is functional, Homo sapiens. More on the design: scale not given: the % may be the effect or the level left. Conditions: time 24-48 hrs.

For series [3], the system named is HUVEC. In words: Antiangiogenic activity in confluent VEGF stimulated HUVEC cells assessed as inhibition of cell migration at 20 uM incubated for 24 to 48 hrs by Hoechst 33342 staining based wound healing assay. The format is functional. The conditions noted are these: Homo sapiens, time 24-48 hrs.
The target of series [4] is Mitogen-activated protein kinase; ERK1/ERK2 (Homo sapiens) (UniProt P27361+P28482). In words: Inhibition of ERK1/2 phosphorylation in serum starved bFGF stimulated HFF cells assessed as residual phosphorylated ERK1/2 level at 20 uM preincubated for 10 mins followed by bFGF addition and measured after 20 mins by Western blotting analysis relative to control. The format is cell-based. The conditions noted are these: time 30.0 min.

A further series has as its system SK-OV-3. In words: Antiproliferative activity against human SK-OV-3 cells assessed as growth rate at 10 uM incubated for 48 hrs by MTT assay relative to control. The format is functional. The conditions noted are these: read-out: Activity.
Series [5] can be described thus: Cytotoxicity against human GM06114 cells assessed as growth rate at 10 uM incubated for 48 hrs by MTT assay relative to control. The format is toxicity, cell-based. Conditions: gm06114, 48 h.
Another series concerns MCF7. In words: Antiproliferative activity against human MCF7 cells assessed as growth rate at 10 uM incubated for 48 hrs by MTT assay relative to control. The format is functional. The conditions noted are these: read-out: Activity.
The next series relates to A549. In words: Antiproliferative activity against human A549 cells assessed as growth rate at 10 uM incubated for 48 hrs by MTT assay relative to control. The conditions noted are these: read-out: Activity. The format is functional.
Series [6] has as its system HFF. In words: Antiangiogenic activity in confluent HFF cells assessed as inhibition of cell migration at 20 uM incubated for 24 to 48 hrs by Hoechst 33342 staining based wound healing assay. Conditions: Homo sapiens, time 24-48 hrs. The format is functional.
For series [7], the target named is RAC-alpha serine/threonine-protein kinase (Homo sapiens) (UniProt P31749). Nature of the series: Inhibition of AKT phosphorylation in serum starved bFGF stimulated HFF cells at 20 uM preincubated for 10 mins followed by bFGF addition and measured after 20 mins by Western blotting analysis. The format is cell-based. Conditions: time 30.0 min.
Series [8] concerns HUVEC. Nature of the series: Antiangiogenic activity in confluent VEGF stimulated HUVEC cells assessed as inhibition of cell migration at 20 uM incubated for 48 hrs by Hoechst 33342 staining based wound healing assay. The conditions noted are these: Homo sapiens. The format is functional.
The test system of series [9] is HUVEC. Nature of the series: Antiangiogenic activity in confluent VEGF stimulated HUVEC cells assessed as relative cell migration rate at 20 uM incubated for 24 hrs by Hoechst 33342 staining based wound healing assay relative to control. The format is functional, Homo sapiens.
The target in series [10] is RAC-alpha serine/threonine-protein kinase (Homo sapiens) (UniProt P31749). Nature of the series: Inhibition of AKT phosphorylation in serum starved bFGF stimulated HFF cells assessed as residual activity at 20 uM preincubated for 10 mins followed by bFGF addition and measured after 20 mins by Western blotting analysis relative to control. The conditions noted are these: time 30.0 min. The format is cell-based.

Series [11] relates to HFF. Nature of the series: Antiangiogenic activity in confluent HFF cells assessed as relative migration rate at 20 uM incubated for 24 hrs by Hoechst 33342 staining based wound healing assay relative to control. The format is functional, Homo sapiens.
For series [12], the system named is HFF. In words: Antiangiogenic activity in confluent HFF cells assessed as relative migration rate at 20 uM incubated for 48 hrs by Hoechst 33342 staining based wound healing assay relative to control. The format is functional, Homo sapiens.
For series [13], the system named is HFF. Nature of the series: Antiangiogenic activity in confluent HFF cells assessed as relative migration rate at 1 uM incubated for 24 hrs by Hoechst 33342 staining based wound healing assay relative to control. The format is functional, Homo sapiens.
In series [14] the test system is HFF. Nature of the series: Antiangiogenic activity in confluent HFF cells assessed as relative migration rate at 1 uM incubated for 48 hrs by Hoechst 33342 staining based wound healing assay relative to control. The format is functional, Homo sapiens.
The target of series [15] is RAC-alpha serine/threonine-protein kinase (Homo sapiens) (UniProt P31749). In words: Inhibition of AKT phosphorylation in serum starved VEGF stimulated HUVEC cells at 20 uM preincubated for 10 mins followed by VEGF addition and measured after 20 mins by Western blotting analysis. The conditions noted are these: time 30.0 min. The format is cell-based.
Series [16] has as its system HUVEC. In words: Antiangiogenic activity in confluent VEGF stimulated HUVEC cells assessed as relative cell migration rate at 20 uM incubated for 48 hrs by Hoechst 33342 staining based wound healing assay relative to control. The format is functional, Homo sapiens.

The term inhibition denotes how much of the control response was suppressed.

Sequence of Mitogen-activated protein kinase; ERK1/ERK2 (Homo sapiens) (P27361 whole entry, looked up): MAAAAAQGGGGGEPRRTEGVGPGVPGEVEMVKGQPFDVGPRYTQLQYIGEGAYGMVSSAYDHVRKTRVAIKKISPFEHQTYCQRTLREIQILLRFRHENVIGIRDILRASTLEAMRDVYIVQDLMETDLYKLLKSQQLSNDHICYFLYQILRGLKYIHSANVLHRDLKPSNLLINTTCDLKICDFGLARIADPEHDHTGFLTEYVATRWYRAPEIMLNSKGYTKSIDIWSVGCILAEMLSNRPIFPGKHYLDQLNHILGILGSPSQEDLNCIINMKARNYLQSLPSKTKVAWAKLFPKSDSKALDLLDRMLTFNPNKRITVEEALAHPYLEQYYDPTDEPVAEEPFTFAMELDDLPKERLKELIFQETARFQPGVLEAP
Sequence of Mitogen-activated protein kinase; ERK1/ERK2 (Homo sapiens) (P28482 whole entry, looked up): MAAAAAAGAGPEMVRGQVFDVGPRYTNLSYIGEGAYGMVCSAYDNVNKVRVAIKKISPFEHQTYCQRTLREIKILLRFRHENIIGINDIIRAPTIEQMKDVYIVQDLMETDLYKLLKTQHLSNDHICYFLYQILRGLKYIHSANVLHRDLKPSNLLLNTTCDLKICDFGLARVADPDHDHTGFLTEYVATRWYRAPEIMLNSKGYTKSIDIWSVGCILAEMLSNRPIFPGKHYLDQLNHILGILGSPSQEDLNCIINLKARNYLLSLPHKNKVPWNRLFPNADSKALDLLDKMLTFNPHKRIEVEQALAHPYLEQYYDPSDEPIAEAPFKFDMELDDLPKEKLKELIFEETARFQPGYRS
Sequence of RAC-alpha serine/threonine-protein kinase (Homo sapiens) (P31749 whole entry): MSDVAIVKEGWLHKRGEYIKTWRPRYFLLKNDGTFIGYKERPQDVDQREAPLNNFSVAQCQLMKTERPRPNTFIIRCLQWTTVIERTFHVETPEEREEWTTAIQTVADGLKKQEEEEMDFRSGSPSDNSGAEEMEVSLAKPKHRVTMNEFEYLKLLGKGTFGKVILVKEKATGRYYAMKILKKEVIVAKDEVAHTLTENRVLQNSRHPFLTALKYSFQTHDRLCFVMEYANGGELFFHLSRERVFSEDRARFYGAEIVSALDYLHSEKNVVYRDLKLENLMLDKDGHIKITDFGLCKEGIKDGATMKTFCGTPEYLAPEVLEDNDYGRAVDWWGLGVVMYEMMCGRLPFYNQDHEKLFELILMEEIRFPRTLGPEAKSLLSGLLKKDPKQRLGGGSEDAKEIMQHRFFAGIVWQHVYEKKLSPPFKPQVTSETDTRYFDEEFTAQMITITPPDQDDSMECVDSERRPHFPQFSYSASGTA

For the compound `CCOC(=O)c1c(Nc2ccccc2)nn(CC(OC(=O)Nc2cccc(C(F)(F)F)c2)c2ccccc2)c1N` (configuration not stated), the growth at 10 µM in the series with SK-BR-3 was 125%; with SK-MEL-28, 115%; in the series on HepG2, 117%; in the series with HeLa, 60.6%; in the series with MDA-MB-231, 113%; in the series on SK-OV-3 it was 120%. Also, the growth at 10 µM with MCF7 is 124%; in the series on A549, 82.9%. The compound also displayed an inhibition in series [1] of 34.2%. In addition, the Activity with HFF [2] is under 60%; in [4], over 70%; in series [5], 126.08%. Besides, the result in the series with HUVEC [3] was inactive.
For the compound `CCCCC(O)Cn1nc(Nc2ccccc2Cl)c(C(=O)OCC)c1N` (configuration not stated), the growth at 10 µM in the series on SK-BR-3 was determined as 103%; with SK-MEL-28, 109%; with HepG2, 102%; with HeLa, 104%; with MDA-MB-231, 126%; in the series with SK-OV-3, 125%. Also, the growth at 10 µM came out at 140% with MCF7 and 138% in the series with A549. Moreover, the result with HFF [6] was Active. The inhibition result in series [7] is “Active”. Moreover, the result in the series with HUVEC [8] was inactive. Besides, the Activity in [4] is over 70%; in series [5] it was 92.72%; in the series with HUVEC [9], 47.74%.
In the case of `CCCC(O)Cn1ncc(C(=O)OCC)c1NC(=O)Nc1cccc(C(F)(F)F)c1` (configuration not stated), in series [1], the inhibition came out at 59.1%. Further, the Activity in series [10] was found to be 55.9%; with HFF [11], 40.31%; with HFF [12], 31.37%; in the series with HUVEC [9], 56.54%. The result in the series with HUVEC [3] was inactive.
Consider `CCCCC(Cn1nc(Nc2ccccc2Cl)c(C(=O)OCC)c1N)OC(=O)Nc1cccc(C(F)(F)F)c1` (configuration not stated), for which the growth at 10 µM worked out at 106% in the series with SK-BR-3; 121% with SK-MEL-28; 110% with HepG2; 84.3% in the series with HeLa; 133% with MDA-MB-231; 127% in the series on SK-OV-3. Further, the growth at 10 µM with MCF7 was 142%; in the series on A549 it was 109%. In addition, the inhibition entry in series [7] was “inactive”. The Activity in the series on HFF [2] is under 60%; in series [4], over 70%; in [5] it was 92.97%. For the same compound, in the series on HUVEC [3], the outcome was inactive.
On to `Cc1nc(Nc2ncc(C(=O)Nc3c(C)cccc3Cl)s2)cc(N2CCN(CCO)CC2)n1` [DASATINIB ANHYDROUS], for which the inhibition in series [1] came to 24.1%. Besides, the Activity in the series with HFF [13] came to 27.31%; in the series with HFF [14] it was 27.32%. For the same compound, the outcome in the series with HUVEC [3] was inactive.
With `CCCCC(O)Cn1nc(Nc2ccc(Cl)cc2)c(C(=O)OCC)c1N` (configuration not stated), the growth at 10 µM with SK-BR-3 was 114%; with SK-MEL-28, 115%; in the series with HepG2 it was 108%; in the series with HeLa, 104%; with MDA-MB-231 it was 137%; with SK-OV-3 it was 132%. Also, the growth at 10 µM turned out to be 145% with MCF7 and 130% with A549. Also, the result in the series with HFF [6] was Active. For the same compound, the inhibition entry in series [7] and in [15] was “inactive” each time. Also, in the series with HUVEC [3], the outcome was inactive. The Activity in series [4] is over 70%; in series [5] it was 93.96%.
Turning to `CCOC(=O)c1c(Nc2ccc(C)cc2)nn(CC(O)c2ccccc2)c1N` (configuration not stated), the growth at 10 µM in the series on SK-BR-3 came to 112%; in the series on SK-MEL-28, 128%; in the series on HepG2, 102%; with HeLa, 80%; with MDA-MB-231 it was 117%; with SK-OV-3 it was 117%. For the same compound, the growth at 10 µM with MCF7 stood at 119%; in the series on A549, 118%. This compound also came in with an inhibition in series [1] of 16.2%. Moreover, the Activity in series [10] is 27.3%; in [4], over 70%; in the series with HFF [11] it was under 40%; with HFF [12], under 55%; in [5] it was 105.89%. The outcome with HUVEC [3] was inactive.
Turning to `CCOC(=O)c1c(Nc2ccc(Cl)cc2)nn(CC(OC(=O)Nc2cccc(C(F)(F)F)c2)c2ccccc2)c1N` (configuration not stated), the growth at 10 µM in the series on SK-BR-3 is 124%; in the series on SK-MEL-28, 112%; with HepG2 it was 120%; in the series on HeLa, 65.9%; in the series on MDA-MB-231, 121%; with SK-OV-3 it was 122%. The values for the growth at 10 µM in the series with MCF7 and in the series with A549 were 128% and 89.2%, respectively. The Activity in the series on HUVEC [16] is over 50%; in series [4], over 70%; in series [5] it was 131.1%; in the series on HUVEC [9], over 50%. For the same compound, the result in the series on HFF [6] was inactive.
